# “Also recorded” adds a separate entry of the source.
# What was measured:
# [1] = tested on: TNF-α production in PBMCs from an AOSD patient; test: TNF-α level in PBMCs harvested from an AOSD patient; assay type: cell-based, human; details: negative control, 40 μM
# Description: But there is a lack of appropriate rodent models because TLR8 is not functional in either mice or rats. Therefore, the TLR8 inhibitors of this disclosure were tested in human specimens harvested from patients with osteoarthritis (OA), rheumatoid arthritis (RA), and adult onset-Still's disease (AOSD). It is well established that TNF-α and IL-1β are key cytokines in the process of chronic joint inflammation in cartilage. Therefore, synovial cells were isolated from synovial tissue of patients who underwent joint replacement surgery due to severe OA. Previous studies have indicated these pathological tissues express both TLR7 and TLR8 with elevated production of various cytokines, contributing to extensive articular destruction and functional decline.
# [2] = tested on: TLR8-mediated TNF-α production in PBMC cells; test: R848-induced TNF-α secretion in PBMCs; assay type: cell-based, human; details: 1 μg/mL R848; dose-dependent; 4a at 50 μM
# Source text: Peripheral blood mononuclear cells (PBMCs) include lymphocytes (T cells, B cells, and NK cells), monocytes, and dendritic cells expressing various TLRs. TLR7 and TLR8 are both expressed on B cells and monocytes, while DC plasmacytoids (DCps) express only TLR7 and immature DCs (DC11c^+) express only TLR8.
# [3] = tested on: TLR8-mediated TNF-α and IL-8 mRNA; test: RT-PCR of TNF-α and IL-8 mRNA in R848 treated HEK-Blue TLR8 cells; assay type: cell-based, human; details: negative control, 10 μM
# Source text: R848-induced TLR8 activation results in increased production of the proinflammatory cytokines, such as TNF-α, IL-6 and IL-8.
# [4] = target: T1, human TLR8 (Homo sapiens, UniProt Q9NR97); test: SEAP reporter assay in HEK-Blue TLR8 cells, R848-induced TLR8 signaling; assay type: cell-based
# T1 construct: expressed in transfected cells; host or cells: HEK-Blue Null1 cells, lentiviral infection
# T1 sequence (Q9NR97 27-1041): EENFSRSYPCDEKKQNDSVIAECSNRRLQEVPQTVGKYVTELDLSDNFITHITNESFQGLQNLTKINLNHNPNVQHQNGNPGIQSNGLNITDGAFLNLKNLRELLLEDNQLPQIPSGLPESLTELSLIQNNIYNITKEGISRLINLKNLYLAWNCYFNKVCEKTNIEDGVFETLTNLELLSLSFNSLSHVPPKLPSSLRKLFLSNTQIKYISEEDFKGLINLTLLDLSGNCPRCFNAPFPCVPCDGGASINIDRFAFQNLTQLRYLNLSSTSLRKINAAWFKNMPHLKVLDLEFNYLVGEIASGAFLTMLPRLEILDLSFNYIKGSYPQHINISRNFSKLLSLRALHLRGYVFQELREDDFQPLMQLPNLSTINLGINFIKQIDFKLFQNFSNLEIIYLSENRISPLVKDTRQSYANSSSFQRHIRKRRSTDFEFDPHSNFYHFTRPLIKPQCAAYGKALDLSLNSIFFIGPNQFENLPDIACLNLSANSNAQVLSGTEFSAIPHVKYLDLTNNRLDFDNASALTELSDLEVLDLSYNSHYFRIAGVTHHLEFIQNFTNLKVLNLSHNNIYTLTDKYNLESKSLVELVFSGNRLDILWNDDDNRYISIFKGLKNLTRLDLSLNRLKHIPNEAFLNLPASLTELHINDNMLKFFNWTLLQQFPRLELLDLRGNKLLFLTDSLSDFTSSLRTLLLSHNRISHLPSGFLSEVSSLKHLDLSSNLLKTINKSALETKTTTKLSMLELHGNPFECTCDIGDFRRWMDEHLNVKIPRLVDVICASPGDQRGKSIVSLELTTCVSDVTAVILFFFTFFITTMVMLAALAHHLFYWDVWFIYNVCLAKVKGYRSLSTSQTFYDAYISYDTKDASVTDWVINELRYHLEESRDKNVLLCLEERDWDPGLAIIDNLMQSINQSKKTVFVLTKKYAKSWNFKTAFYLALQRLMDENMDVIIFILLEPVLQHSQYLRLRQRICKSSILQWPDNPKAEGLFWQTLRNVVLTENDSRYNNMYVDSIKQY
# Description: SEAP reporter assay: HEK-Blue TLR8 cells were seeded in tissue culture treated 96-well plates with a density of 7.5×10^4 cells/well in DMEM media supplemented with 10% FBS (phosphatases deactivated with heat). […] Plates are then incubated in humidified incubators containing 5% CO2 at 37° C. for 24 h, after which, 30 μL of culture media was transfer to a new plate and 100 μL of Quanti-Blue (Invivogen) was added, the plate was then incubated at 37° C. till color change (30 min-1 h). Readout of absorbance at 620 nm was quantified using Beckman-Coulter DTX 880 Multimode Detector. […] SEAP assays for each sample were conducted with three biological replicates, each in triplicate.
# To establish a robust high throughput assay for TLR8 inhibitors, the inventors first engineered a cell line stably overexpressing the human TLR8 whose activation can be reported by the Secreted Embryonic Alkaline Phosphatase (SEAP) assay. TLR8-overexpresing HEK-Blue cells were prepared by lentiviral infection of HEK-Blue Null1 cells that have null or low basal expression of endogenous TLR genes. […] The TLR8-mediated NF-κB activation can be assessed by measuring the SEAP activity.
# [5] = tested on: TLR8-mediated TNF-α production in THP-1 cells; test: R848-induced TNF-α production in differentiated THP-1 monocytes; assay type: cell-based, human; details: 10 μM
# [6] = tested on: TNF-α production in PBMCs from RA patients; test: TNF-α level in PBMCs harvested from RA patients; assay type: cell-based, human; details: negative control, up to 80 μM
# [7] = 1(2H)-phthalazinone and quinoline derivatives in HEK-Blue hTLR8 cells
# [8] = quinoline derivatives in HEK-Blue hTLR8 cells, ± SD, at least three biological replicates
# [9] = pyrazolo[1,5-a]pyrimidine derivatives in HEK-Blue hTLR8 cells, ± SD, at least three biological replicates
"IC50 [4, 7] [µM]",Compound,further results
–,O=C(O)c1cnn2c(-c3cccc(C(F)(F)F)c3)ccnc12 [Compound 4a],inhibitory activity on TNF-α level in PBMCs from an AOSD patient [1]: did not show notable inhibitory activity; R848-induced TNF-α secretion of PBMCs [2]: not; inhibition of R848-induced TNF-α and IL-8 mRNA levels [3]: negligible inhibition; inhibitory activity against TLR8 signaling ([4]; up to 20 μM): did not show any inhibitory activity; inhibition of R848-induced TNF-α production [5]: failed to show significant inhibition; inhibition of TNF-α level in PBMCs from RA patients [6]: did not show significant inhibition; also recorded: did not show notable inhibitory activity
> 20,"O=c1[nH]nc(-c2ccc(O)c(C(F)(F)F)c2)c2ccccc12 [Compound 26, 4-(4-Hydroxy-3-trifluoromethylphenyl)-1(2H)-phthalazinone]",–
> 20,"O=c1[nH]nc(-c2ccccc2)c2ccccc12 [Compound 5, 4-Phenyl-1(2H)-phthalazinone]",–
> 20,"Cc1cc(C)cc(-c2n[nH]c(=O)c3ccccc23)c1 [Compound 8, 4-(3,5-Dimethylphenyl)-1(2H)-phthalazinone]",–
> 20,"COc1c(C)cc(-c2n[nH]c(=O)c3ccccc23)cc1C [Compound 11, 4-(4-Methoxy-3,5-dimethylphenyl)-1(2H)-phthalazinone]",–
> 20,"Cc1cc(-c2n[nH]c(=O)c3ccccc23)ccc1C(=O)O [Compound 14, 4-(4-Carboxylic-3-methylphenyl)-1(2H)-phthalazinone]",–
–,O=c1[nH]nc(-c2ccccc2)c2ccccc12 [Compound 14a],"IC50 [4, 8]: > 20 µM"
0.3 ± 0.07,"Cc1cc(-c2ccnc3cccnc23)ccc1O [Compound 50, 4-(4-Hydroxyl-3-methylphenyl)-1,5-naphthyridine]",–
> 20,"Cc1cc(-c2cccc3ccccc23)ccc1O [Compound 43, 1-(4-Hydroxy-3-methylphenyl)naphthalene]",–
13 ± 2.14,Cc1cc(-c2n[nH]c(=O)c3cccnc23)cc(C)c1O [Compound 35],–
–,NC(=O)c1cnn2c(-c3cccc(Cl)c3)ccnc12 [Compound 6h],"IC50 [4, 9]: 0.28 ± 0.1 µM"
2.72 ± 0.31,"Cc1cc(-c2ccc(N)c3ccccc23)ccc1O [Compound 3, 1-Amino-4-(4-hydroxy-3-methylphenyl)-naphthalene]",–
> 20,"O=c1[nH]nc(-c2ccc(O)cc2)c2ccccc12 [Compound 19, 4-(4-Hydroxyphenyl)phthalazin-1(2H)-one]",–
–,Cc1cc(-c2cccc3ccccc23)ccc1O [Compound 11d],"IC50 [4, 8]: > 20 µM"
0.09 ± 0.03,"Cc1cc(-c2ccnc3[nH]ccc23)ccc1O [Compound 49, 4-(4-Hydroxyl-3-methylphenyl)-7-azaindole]",–
> 20,"N#Cc1cc(-c2n[nH]c(=O)c3ccccc23)ccc1O [Compound 28, 4-(4-Hydroxy-3-cyanophenyl)-1(2H)-phthalazinone]",–
> 20,"COc1ccc(-c2nn(C)c(=O)c3ccccc23)cc1 [Compound 10, 4-(4-Methoxyphenyl)-2-methyl-1(2H)-phthalazinone]",–
–,NC(=O)c1cnn2c(-c3cccnc3)ccnc12 [Compound 6l],"IC50 ([4]; HEK-Blue TLR8 cells): > 20 µM; IC50 [4, 9]: > 20 µM"
> 20,"Cc1cc(-c2n[nH]c(=O)c3cccc(C)c23)ccc1O [Compound 34, 4-(4-Hydroxy-3-methylphenyl)-5-methyl-1(2H)-phthalazinone]",–
–,NC(=O)c1cnn2c(-c3cccc(F)c3)ccnc12 [Compound 6g],"IC50 [4, 9]: 0.45 ± 0.09 µM"

Compound,"IC50 [4, 7] [µM]",further results
"O=c1[nH]nc(-c2ccc(O)c3ccccc23)c2ccccc12 [Compound 25, 4-(4-Hydroxy-naphthyl)-1(2H)-phthalazinone]",> 20,–

# — patent publication US11466010B2, “Toll-like receptor 8 (TLR8) specific antagonists and methods of making and uses thereof” (The Regents of the University of Colorado, a body corporate, priority 2017, dated 2022)
